Laboratory results as given in PMC10188280 (Inorganic chemistry, 2022).

How the values were obtained:
[1] = unsubstituted (lacking the N4 phenyl) compound; cited from earlier work
[2] = test system: Caco-2 (Colon); assay: MTT antiproliferative assay, 72 h; assay type: cell-based; settings: read-out: IC50 values Caco-2 (Colon), 72 h exposure, mean ± SDM, n = 3
[3] = test system: SK-OV-3 (Ovary); assay: MTT antiproliferative assay, 72 h; assay type: cell-based; settings: read-out: IC50 values SK-OV-3 (Ovary), 72 h exposure, mean ± SDM, n = 3
[4] = test system: HT-29 (Colon); assay: MTT antiproliferative assay, 72 h; assay type: cell-based; settings: read-out: IC50 values HT-29 (Colon), 72 h exposure, mean ± SDM, n = 3
[5] = test system: A2780 (Ovary); assay: MTT antiproliferative assay, 72 h; assay type: cell-based; settings: read-out: IC50 values A2780 (Ovary), 72 h exposure, mean ± SDM, n = 3
[6] = test system: MCF-7 (Breast); assay: MTT antiproliferative assay, 72 h; assay type: cell-based; settings: read-out: IC50 values MCF-7 (Breast), 72 h exposure, mean ± SDM, n = 3
[7] = test system: MDA-MB-231 (Breast); assay: MTT antiproliferative assay, 72 h; assay type: cell-based; settings: read-out: IC50 values MDA-MB-231 (Breast), 72 h exposure, mean ± SDM, n = 3
[8] = test system: A2780 cells; assay: Cell cycle analysis by flow cytometry; assay type: cell-based; settings: 24 h, lower of two concentrations close to 24-h IC50

SMILES | pKa [1] | IC50 [2] | IC50 [3] | IC50 [4] | IC50 [5] | IC50 [6] | IC50 [7] | cell cycle distribution at the lower concentration [8]
NC(=S)N/N=C/c1ccccc1O [salicylaldehyde thiosemicarbazone] | 8.8 |  |  |  |  |  |  | 
Oc1ccccc1C=NNC(=S)Nc1ccccc1 [STC1] |  | 7.3 ± 0.8 µM | 2.3 ± 0.2 µM | 9.5 ± 0.5 µM | 1900 ± 100 nM | 1.74 ± 0.04 µM | 4.8 ± 0.2 µM | 
CC(=O)N(O)CCCCCNC(=O)CCC(=O)N(O)CCCCCNC(=O)CCC(=O)N(O)CCCCCN [DFO] |  | 3.9 ± 0.5 µM | 9.5 ± 0.5 µM | 2.3 ± 0.2 µM | 1900 ± 100 nM | 22.5 ± 0.3 µM | 4.58 ± 0.03 µM | a larger fraction of cells was able to proceed to the S phase but remained unable to reach the G2 phase
